pIC50: −log10 of the molar value. Where two headings read alike, the source gives them in different places.
Columns and labels:
hNR2B [1] = target: T1, hNR2B (Homo sapiens, UniProt Q13224); test: Electrophysiology NMDA receptor experiments: two electrode voltage-clamp in Xenopus laevis oocytes, hNR2B IC50; assay type: cell-based; conditions: hNR2B activity class, 50 μM glutamate, 30 μM glycine
T1 construct: expressed in transfected cells; host or cells: Xenopus laevis oocytes, cRNA-injected

hNR2B [2] = target: T2, hNR2B (Homo sapiens, UniProt Q05586+Q13224); test: as above; assay type: cell-based; conditions: 50 μM glutamate, 30 μM glycine
T2 construct: expressed in transfected cells; host or cells: Xenopus laevis oocytes, cRNA-injected

[3] = hNR2B activity class, read-out: Activity
[4] = voltage clamp -40 mV, read-out: hNR2B IC50

T2 sequence (Q13224 27-1484, other chains not shown): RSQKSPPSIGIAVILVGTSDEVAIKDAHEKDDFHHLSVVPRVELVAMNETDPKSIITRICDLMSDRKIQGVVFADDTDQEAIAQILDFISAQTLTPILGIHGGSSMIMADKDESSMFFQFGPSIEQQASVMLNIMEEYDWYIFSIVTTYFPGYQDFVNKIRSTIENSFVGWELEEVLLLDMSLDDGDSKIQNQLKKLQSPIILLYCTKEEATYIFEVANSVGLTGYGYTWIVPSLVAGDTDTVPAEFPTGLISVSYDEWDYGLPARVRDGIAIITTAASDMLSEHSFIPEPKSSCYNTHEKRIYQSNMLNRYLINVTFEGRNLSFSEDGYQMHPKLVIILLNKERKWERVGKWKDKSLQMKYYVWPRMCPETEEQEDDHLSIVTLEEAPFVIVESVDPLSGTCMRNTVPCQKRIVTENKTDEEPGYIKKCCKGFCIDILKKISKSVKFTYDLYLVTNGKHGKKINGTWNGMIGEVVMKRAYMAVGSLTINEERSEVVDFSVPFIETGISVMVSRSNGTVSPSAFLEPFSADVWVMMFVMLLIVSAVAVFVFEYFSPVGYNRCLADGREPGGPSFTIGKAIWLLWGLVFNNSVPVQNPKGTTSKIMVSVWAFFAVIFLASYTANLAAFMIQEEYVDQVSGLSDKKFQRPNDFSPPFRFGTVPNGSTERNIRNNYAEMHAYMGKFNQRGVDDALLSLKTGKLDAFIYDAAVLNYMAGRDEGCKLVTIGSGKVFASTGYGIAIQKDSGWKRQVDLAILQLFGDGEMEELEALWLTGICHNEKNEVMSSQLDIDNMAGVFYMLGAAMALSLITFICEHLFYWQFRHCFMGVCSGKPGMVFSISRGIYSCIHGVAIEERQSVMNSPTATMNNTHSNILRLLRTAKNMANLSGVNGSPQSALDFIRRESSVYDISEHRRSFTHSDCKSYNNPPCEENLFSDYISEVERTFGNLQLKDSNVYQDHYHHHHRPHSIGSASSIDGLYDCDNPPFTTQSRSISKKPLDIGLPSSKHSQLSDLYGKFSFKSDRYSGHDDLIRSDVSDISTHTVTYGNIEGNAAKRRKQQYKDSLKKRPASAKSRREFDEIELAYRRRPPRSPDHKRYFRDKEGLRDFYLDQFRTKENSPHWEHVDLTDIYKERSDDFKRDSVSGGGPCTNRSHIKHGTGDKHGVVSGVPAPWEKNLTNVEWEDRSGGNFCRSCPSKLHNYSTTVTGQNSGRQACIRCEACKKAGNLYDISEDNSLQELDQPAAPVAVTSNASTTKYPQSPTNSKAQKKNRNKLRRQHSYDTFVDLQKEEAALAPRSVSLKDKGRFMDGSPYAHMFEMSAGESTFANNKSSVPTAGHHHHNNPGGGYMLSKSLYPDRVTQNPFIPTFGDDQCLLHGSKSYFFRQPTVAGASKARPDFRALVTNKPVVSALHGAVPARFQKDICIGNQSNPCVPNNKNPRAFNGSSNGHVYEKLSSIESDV
T1 sequence (Q13224 27-1484, other chains not shown): as above

Structure (SMILES)	pIC50 (hNR2B [2]; [3])	pIC50 (hNR2B [2]; [4])	other results
CC(Oc1ccc2[nH]c(=O)ccc2c1)c1nnc(Nc2ccc(Cl)c(Cl)c2)o1 (single isomer, unassigned) [Example 110]			pIC50 (hNR2B [1]): > 6.70
Oc1ccc(CCc2nc(Nc3ccc(OC(F)(F)F)cc3)no2)cc1 [Example 224]	6.00 to 6.70		
Oc1ccc(CCc2nc(Nc3ccc(Cl)cc3)no2)cc1 [Example 225]	6.00 to 6.70		
Oc1ccc(CCc2nc(Nc3ccc(OC(F)F)cc3)no2)cc1 [Example 226]	6.00 to 6.70		
Fc1cc(Nc2noc(CCc3ccc4cn[nH]c4c3)n2)ccc1Cl [Example 227]	< 5.00		
Fc1cc(Nc2noc(CCc3cccc4[nH]ncc34)n2)ccc1Cl [Example 228]	5.00 to 6.00		
FC(F)Oc1ccc(Nc2noc(CCc3ccc4cn[nH]c4c3)n2)cc1Cl [Example 230]	> 6.70		
FC(F)Oc1ccc(Nc2noc(CCc3cccc4[nH]ncc34)n2)cc1Cl [Example 231]	5.00 to 6.00		
Oc1ccc(CCc2nc(Nc3ccc(Cl)c(Cl)c3)no2)cc1 [Example 232]	5.00 to 6.00		
Fc1cc(Nc2noc(CCc3cnc4[nH]ncc4c3)n2)ccc1OC(F)F [Example 233]	> 6.70		
FC(F)Oc1ccc(Nc2noc(CCc3ccc4[nH]nc(Cl)c4c3)n2)cc1Cl [Example 234]	5.00 to 6.00		
Cc1cc(Nc2noc(C3CC3c3ccc4[nH]c(=O)ccc4c3)n2)ccc1OC(F)F (centres unmarked) [Example 235, 6-(2-(3-((4-(difluoromethoxy)-3-methylphenyl)amino)-1,2,4-oxadiazol-5-yl)cyclopropyl)quinolin-2(1H)-one]		7.36	
Cc1cc(Nc2noc(C3CC3c3ccc4[nH]ncc4c3)n2)ccc1OC(F)F (centres unmarked) [Example 236]	6.00 to 6.70		
Fc1cc(Nc2noc(C3CC3c3ccc4[nH]ncc4c3)n2)ccc1OC(F)F (centres unmarked) [Example 238]	> 6.70		
O=C1CCc2cc(OCc3noc(Nc4ccc(Cl)c(Cl)c4)n3)ccc2N1 [Example 239, 6-((5-((3,4-dichlorophenyl)amino)-1,2,4-oxadiazol-3-yl)methoxy)-3,4-dihydroquinolin-2(1H)-one]		5.44	
O=C1CCc2cc(OCc3nnc(Nc4ccc(OC(F)(F)F)cc4)s3)ccc2N1 [Example 247]	> 6.70		
O=c1ccc2cc(OCc3nnc(NCc4ccc(Cl)nc4)s3)ccc2[nH]1 [Example 251]		5.03	

Structure (SMILES)	pIC50 (hNR2B [2]; [3])	pIC50 (hNR2B [2]; [4])	other results
O=c1ccc2cc(OCc3cc(NCc4ccc(OC(F)F)cc4)no3)ccc2[nH]1 [Example 253, 6-((3-(4-(difluoromethoxy)benzylamino)isoxazol-5-yl)methoxy)quinolin-2(1H)-one]		6.49	
FC(F)Oc1ccc(Nc2cc(COc3ccc4[nH]ncc4c3)on2)cc1Cl [Example 258]	> 6.70		
Cc1ccc(Nc2cc(COc3ccc4[nH]ncc4c3)on2)cc1F [Example 271]	> 6.70		
Cc1cc(Nc2cc(COc3ccc4[nH]ncc4c3)on2)ccc1OC(F)F [Example 272]	> 6.70		
CCc1ccc(Nc2cc(COc3ccc4[nH]ncc4c3)on2)cc1 [Example 273]	5.00 to 6.00		
Fc1cc(Nc2cc(COc3ccc4[nH]ncc4c3)on2)ccc1OC(F)F [Example 274]	> 6.70		
FC(F)Oc1ccc(Nc2cc(COc3ccc4[nH]ncc4c3)on2)cc1 [Example 275]	> 6.70		
Cn1c(CCc2ccc3[nH]ncc3c2)nnc1Nc1ccc(OC(F)F)cc1 [Example 277, 5-(2-(1H-indazol-5-yl)ethyl)-N-(4-(difluoromethoxy)phenyl)-4-methyl-4H-1,2,4-triazol-3-amine]		6.98	
Cn1c(CCNc2ncnc3[nH]ncc23)nnc1Nc1ccc(OC(F)F)cc1 [Example 280]	> 6.70		
O=C1CCc2cc(OCc3nnc(Nc4ccc(Cl)cc4)[nH]3)ccc2N1 [Example 283]	6.00 to 6.70		
O=C1CCc2cc(OCc3nnc(Cc4ccc(Cl)c(Cl)c4)[nH]3)ccc2N1 [Example 284, 6-((5-(3,4-dichlorobenzyl)-4H-1,2,4-triazol-3-yl)methoxy)-3,4-dihydroquinolin-2(1H)-one]		4.70	
O=C1CCc2cc(OCc3nnc(-c4ccc(Cl)cc4)[nH]3)ccc2N1 [Example 286, 6-((5-(4-chlorophenyl)-4H-1,2,4-triazol-3-yl)methoxy)-3,4-dihydroquinolin-2(1H)-one]		5.52	
O=C1CCc2cc(OCc3nc(Cc4ccc(Cl)cc4)no3)ccc2N1 [Example 287, 6-((3-(4-chlorobenzyl)-1,2,4-oxadiazol-5-yl)methoxy)-3,4-dihydroquinolin-2(1H)-one]		5.42	
O=C1CCc2cc(OCCCc3noc(-c4ccc(Cl)cc4)n3)ccc2N1 [Example 288, 6-(3-(5-(4-chlorophenyl)-1,2,4-oxadiazol-3-yl)propoxy)-3,4-dihydroquinolin-2(1H)-one]		< 5.00	
O=C1CCc2cc(OCc3nnc(C(O)c4ccc(Cl)c(Cl)c4)o3)ccc2N1 (centres unmarked) [Example 290, 6-((5-((3,4-dichlorophenyl)(hydroxy)methyl)-1,3,4-oxadiazol-2-yl)methoxy)-3,4-dihydroquinolin-2(1H)-one]		5.32	
O=C1CCc2cc(OCCNc3nnc(-c4ccc(C(F)(F)F)cc4)o3)ccc2N1 [Example 291, 6-(2-(5-(4-(trifluoromethyl)phenyl)-1,3,4-oxadiazol-2-ylamino)ethoxy)-3,4-dihydroquinolin-2(1H)-one]		5.92	

Continued, in another order:

pIC50 (hNR2B [2]; [3])	pIC50 (hNR2B [2]; [4])	Structure (SMILES)	other results
	6.58	O=C1CCc2cc(OCc3nnc(Nc4ccc(Cl)c(Cl)c4)s3)ccc2N1 [Example 240]	
	7.52	O=c1ccc2cc(OCc3nnc(Nc4ccc(C(F)(F)F)cc4)s3)ccc2[nH]1 [Example 241]	
> 6.70		O=C1CCc2cc(OCc3nnc(Nc4ccc(C(F)(F)F)cc4)s3)ccc2N1 [Example 242]	
> 6.70		O=c1ccc2cc(OCc3nnc(Nc4ccc(Cl)c(Cl)c4)s3)ccc2[nH]1 [Example 243]	
> 6.70		O=c1ccc2cc(OCc3nnc(Nc4ccc(Cl)cc4)s3)ccc2[nH]1 [Example 244]	
> 6.70		O=c1ccc2cc(OCc3nnc(Nc4ccc(OC(F)(F)F)cc4)s3)ccc2[nH]1 [Example 245]	
6.00 to 6.70		O=C1CCc2cc(OCc3nnc(NCc4ccc(Cl)c(Cl)c4)s3)ccc2N1 [Example 248]	
6.00 to 6.70		O=c1ccc2cc(OCc3nnc(NCc4ccc(Cl)c(Cl)c4)s3)ccc2[nH]1 [Example 249]	
6.00 to 6.70		O=C1CCc2cc(OCc3nnc(Nc4ccc(Cl)cc4)s3)ccc2N1 [Example 250]	
	4.62	O=C1CCc2cc(OCc3csc(Nc4ccc(Cl)c(Cl)c4)n3)ccc2N1 [Example 252, 6-((2-(3,4-dichlorophenylamino)thiazol-4-yl)methoxy)-3,4-dihydroquinolin-2(1H)-one]	
	6.71	O=c1ccc2cc(OCc3cc(Nc4ccc(Cl)c(Cl)c4)no3)ccc2[nH]1 [Example 254]	
> 6.70		O=c1ccc2cc(OCc3cc(Nc4ccc(OC(F)F)c(Cl)c4)no3)ccc2[nH]1 [Example 255]	
> 6.70		O=c1ccc2cc(OCc3cc(Nc4ccc(Cl)c(F)c4)no3)ccc2[nH]1 [Example 256]	
	8.00	O=c1ccc2cc(OCc3cc(Nc4ccc(Cl)c(F)c4)no3)ccc2[nH]1 [Example 257]	
> 6.70		O=c1ccc2cc(OCc3cc(Nc4ccc(OC(F)F)cc4)no3)ccc2[nH]1 [Example 260]	
> 6.70		COc1ccc(Nc2cc(COc3ccc4[nH]c(=O)ccc4c3)on2)cc1Cl [Example 261]	

pIC50 (hNR2B [2]; [3])	pIC50 (hNR2B [2]; [4])	Structure (SMILES)	other results
5.00 to 6.00		Cc1ccc(Nc2cc(COc3ccc4[nH]c(=O)ccc4c3)on2)cc1C [Example 262]	
5.00 to 6.00		O=c1ccc2cc(OCc3cc(Nc4ccc(Cl)c(C(F)(F)F)c4)no3)ccc2[nH]1 [Example 263]	
> 6.70		O=c1ccc2cc(OCc3cc(Nc4ccc(C(F)(F)F)cc4)no3)ccc2[nH]1 [Example 264]	
> 6.70		CCc1ccc(Nc2cc(COc3ccc4[nH]c(=O)ccc4c3)on2)cc1 [Example 265]	
< 5.00		CCCc1ccc(Nc2cc(COc3ccc4[nH]c(=O)ccc4c3)on2)cc1 [Example 266]	
> 6.70		O=c1ccc2cc(OCc3cc(Nc4ccc(OC(F)F)c(F)c4)no3)ccc2[nH]1 [Example 267]	
> 6.70		Cc1cc(Nc2cc(COc3ccc4[nH]c(=O)ccc4c3)on2)ccc1OC(F)F [Example 268]	
> 6.70		O=c1ccc2cc(OCc3cc(Nc4ccc(C(F)(F)F)c(Cl)c4)no3)ccc2[nH]1 [Example 269]	
5.00 to 6.00		Cc1cc(Nc2cc(COc3ccc4[nH]c(=O)ccc4c3)on2)ccc1F [Example 270]	
	7.62	Cn1c(COc2ccc3[nH]c(=O)ccc3c2)nnc1Nc1ccc(Cl)c(Cl)c1 [Example 276, 6-((5-(3,4-dichlorophenylamino)-4-methyl-4H-1,2,4-triazol-3-yl)methoxy)quinolin-2(1H)-one]	
	7.05	Cn1c(COc2ccc3[nH]c(=O)ccc3c2)nnc1Nc1ccc(OC(F)F)cc1 [Example 278]	
> 6.70		Cn1c(COc2ccc3[nH]c(=O)ccc3c2)nnc1Nc1ccc(OC(F)(F)F)cc1 [Example 279]	
> 6.70		CCn1c(COc2ccc3[nH]c(=O)ccc3c2)nnc1Nc1ccc(OC(F)F)cc1 [Example 281]	
	6.54	O=c1ccc2cc(OCc3nnc(Nc4ccc(Cl)cc4)[nH]3)ccc2[nH]1 [Example 282]	
	5.30	O=c1ccc2cc(OCc3nnc(Cc4ccc(Cl)c(Cl)c4)[nH]3)ccc2[nH]1 [Example 285, 6-((5-(3,4-dichlorobenzyl)-4H-1,2,4-triazol-3-yl)methoxy)quinolin-2(1H)-one]	
	5.62	O=c1ccc2cc(OCc3nnc(Cc4ccc(Cl)c(Cl)c4)o3)ccc2[nH]1 [Example 289, 6-((5-(3,4-dichlorobenzyl)-1,3,4-oxadiazol-2-yl)methoxy)quinolin-2(1H)-one]	

Reference: US8722670B2, “Selective NR2B antagonists” (Bristol-Myers Squibb Company, priority 2011, dated 2014)
